# Assay results published in article PMC8745178, “Methyl 2-Halo-4-Substituted-5-Sulfamoyl-Benzoates as High Affinity and Selective Inhibitors of Carbonic Anhydrase IX” (International Journal of Molecular Sciences, 2021).
# “And” between values parts separate entries of the source, which are not always exact repeats. Equal values may be shown once.
# Legend:
# CAII [1] = target: T1, CAII (Homo sapiens, UniProt P00918); experiment: fluorescent thermal shift assay (FTSA), CAII; assay type: binding; conditions: 37 °C; for ΔGintr CAII: converted from Kd_intr, independent of pH; for ΔGobs CAII: converted from Kd_obs, pH 7.0, FTSA
# CAII [2] = experiment: fluorescent thermal shift assay (FTSA), CAII; assay type: binding, human; conditions: intrinsic
# CAII [3] = target: T1, CAII
# [4] = determination of pKa of the sulfonamide group by UV-VIS spectra at various pH; assay type: physicochemical; conditions: for f RSO2NH-, fraction of deprotonated sulfonamide: at pH 7.0, calculated from pKa; for pKa: calculated from spectra at various pH, 37 °C
# CAXIII = CAXIII (Homo sapiens, UniProt Q8N1Q1); experiment: fluorescent thermal shift assay (FTSA), CAXIII; assay type: binding; conditions: 37 °C; for ΔGobs CAXIII: converted from Kd_obs, pH 7.0, FTSA
# CAVI = CAVI (Homo sapiens, UniProt P23280); experiment: fluorescent thermal shift assay (FTSA), CAVI; assay type: binding; conditions: 37 °C; for ΔGintr CAVI: converted from Kd_intr, independent of pH; for ΔGobs CAVI: converted from Kd_obs, pH 7.0, FTSA
# CAVII = CAVII (Homo sapiens, UniProt P43166); experiment: fluorescent thermal shift assay (FTSA), CAVII; assay type: binding; conditions: 37 °C; for ΔGobs CAVII: converted from Kd_obs, pH 7.0, FTSA
# CAI [5] = target: T2, CAI (Homo sapiens, UniProt P00915)
# CAXII = CAXII (Homo sapiens, UniProt O43570); conditions: for -TΔSintr CAXII / ΔHintr CAXII: intrinsic, 37 °C; for ΔHintr CAXII: independent of pH and buffer; for ΔHobs CAXII: observed, sodium phosphate buffer pH 7.0, 37 °C, ITC
# CAI [6] = target: T2, CAI; experiment: fluorescent thermal shift assay (FTSA), CAI; assay type: binding; conditions: 37 °C; for ΔGintr CAI: converted from Kd_intr, independent of pH; for ΔGobs CAI: converted from Kd_obs, pH 7.0, FTSA
# CAIX [7] = target: T3, CAIX (Homo sapiens, UniProt Q16790); experiment: fluorescent thermal shift assay (FTSA), CAIX; assay type: binding; conditions: for ΔGobs CAIX: pH 7
# [8] = 37 °C
# CAXIV = CAXIV (Homo sapiens, UniProt Q9ULX7); experiment: fluorescent thermal shift assay (FTSA), CAXIV; assay type: binding; conditions: 37 °C; for ΔGobs CAXIV: converted from Kd_obs, pH 7.0, FTSA
# CAVB = CAVB (Homo sapiens, UniProt Q9Y2D0); experiment: fluorescent thermal shift assay (FTSA), CAVB; assay type: binding; conditions: 37 °C; for ΔGintr CAVB: converted from Kd_intr, independent of pH; for ΔGobs CAVB: converted from Kd_obs, pH 7.0, FTSA
# CAIV = CAIV (Homo sapiens, UniProt P22748); experiment: fluorescent thermal shift assay (FTSA), CAIV; assay type: binding; conditions: 37 °C
# CAIX [9] = target: T3, CAIX
# [10] = target: T4, mimic-CAIX (mutant of CAII: A65S, N67Q, I91L, F130V, V134L, L203A) (Homo sapiens, UniProt P00918, A65S/F130V/I91L/L203A/N67Q/V134L); conditions: intrinsic, calculated using pKa_CAZn(II)H2O of CAII, 37 °C
# CAIII = CAIII (Homo sapiens, UniProt P07451); experiment: fluorescent thermal shift assay (FTSA), CAIII; assay type: binding; conditions: 37 °C
# [11] = target: T4, mimic-CAIX (mutant of CAII: A65S, N67Q, I91L, F130V, V134L, L203A)
# CAVA = CAVA (Homo sapiens, UniProt P35218); experiment: fluorescent thermal shift assay (FTSA), CAVA; assay type: binding; conditions: 37 °C
# [12] = intrinsic, 37 °C, independent of pH and buffer
# [13] = observed, sodium phosphate buffer pH 7.0, 37 °C, ITC
# [14] = converted from Kd_intr, independent of pH
# [15] = converted from Kd_obs, pH 7.0, FTSA
# Sequence of CAXIV (Q9ULX7 16-337): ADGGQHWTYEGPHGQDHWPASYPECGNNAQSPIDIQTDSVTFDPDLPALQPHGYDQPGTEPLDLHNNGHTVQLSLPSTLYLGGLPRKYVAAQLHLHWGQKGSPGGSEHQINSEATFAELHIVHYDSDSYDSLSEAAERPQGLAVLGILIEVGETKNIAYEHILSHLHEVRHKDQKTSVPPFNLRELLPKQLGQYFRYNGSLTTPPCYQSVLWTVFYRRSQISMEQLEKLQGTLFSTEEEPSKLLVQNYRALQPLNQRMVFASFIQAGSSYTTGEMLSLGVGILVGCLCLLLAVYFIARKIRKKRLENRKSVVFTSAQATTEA
# T2 sequence (P00915 whole entry): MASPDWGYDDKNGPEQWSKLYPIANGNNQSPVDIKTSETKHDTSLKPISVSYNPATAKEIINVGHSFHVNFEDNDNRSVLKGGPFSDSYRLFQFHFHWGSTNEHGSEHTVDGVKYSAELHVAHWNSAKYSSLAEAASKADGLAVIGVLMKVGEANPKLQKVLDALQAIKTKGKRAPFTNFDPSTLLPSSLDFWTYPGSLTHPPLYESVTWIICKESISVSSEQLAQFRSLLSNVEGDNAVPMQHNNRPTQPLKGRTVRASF
# Sequence of CAXIII (Q8N1Q1 whole entry): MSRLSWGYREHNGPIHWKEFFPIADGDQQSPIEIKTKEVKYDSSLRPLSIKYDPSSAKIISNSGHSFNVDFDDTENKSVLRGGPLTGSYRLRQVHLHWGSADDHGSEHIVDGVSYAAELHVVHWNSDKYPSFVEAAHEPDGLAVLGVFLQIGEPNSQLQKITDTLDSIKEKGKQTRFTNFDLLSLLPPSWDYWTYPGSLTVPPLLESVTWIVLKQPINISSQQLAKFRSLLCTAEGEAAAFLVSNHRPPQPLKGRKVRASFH
# Sequence of CAXII (O43570 25-354): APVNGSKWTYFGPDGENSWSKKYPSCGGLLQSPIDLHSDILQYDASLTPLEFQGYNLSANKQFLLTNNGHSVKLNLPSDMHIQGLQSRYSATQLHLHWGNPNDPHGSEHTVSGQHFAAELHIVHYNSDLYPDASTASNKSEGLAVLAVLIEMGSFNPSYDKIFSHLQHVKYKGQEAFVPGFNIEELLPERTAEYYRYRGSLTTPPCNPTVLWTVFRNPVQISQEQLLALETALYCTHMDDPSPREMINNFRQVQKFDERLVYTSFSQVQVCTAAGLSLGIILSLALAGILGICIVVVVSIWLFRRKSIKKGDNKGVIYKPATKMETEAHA
# Sequence of CAVI (P23280 18-308): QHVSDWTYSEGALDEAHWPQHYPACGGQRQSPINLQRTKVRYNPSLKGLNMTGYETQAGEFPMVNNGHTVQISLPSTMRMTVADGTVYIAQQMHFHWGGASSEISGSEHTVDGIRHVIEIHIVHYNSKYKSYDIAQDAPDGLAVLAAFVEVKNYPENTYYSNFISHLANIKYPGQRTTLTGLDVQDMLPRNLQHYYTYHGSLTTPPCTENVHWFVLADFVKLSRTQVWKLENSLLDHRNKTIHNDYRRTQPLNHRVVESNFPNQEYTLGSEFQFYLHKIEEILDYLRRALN
# Sequence of CAVII (P43166 whole entry): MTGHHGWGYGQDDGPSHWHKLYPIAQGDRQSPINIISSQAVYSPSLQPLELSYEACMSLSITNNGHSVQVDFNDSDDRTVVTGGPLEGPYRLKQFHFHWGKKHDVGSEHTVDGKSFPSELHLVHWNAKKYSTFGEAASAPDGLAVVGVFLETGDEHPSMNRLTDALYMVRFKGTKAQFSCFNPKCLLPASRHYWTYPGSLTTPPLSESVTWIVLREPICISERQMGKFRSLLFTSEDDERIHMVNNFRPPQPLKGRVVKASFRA
# Sequence of CAVB (Q9Y2D0 34-317): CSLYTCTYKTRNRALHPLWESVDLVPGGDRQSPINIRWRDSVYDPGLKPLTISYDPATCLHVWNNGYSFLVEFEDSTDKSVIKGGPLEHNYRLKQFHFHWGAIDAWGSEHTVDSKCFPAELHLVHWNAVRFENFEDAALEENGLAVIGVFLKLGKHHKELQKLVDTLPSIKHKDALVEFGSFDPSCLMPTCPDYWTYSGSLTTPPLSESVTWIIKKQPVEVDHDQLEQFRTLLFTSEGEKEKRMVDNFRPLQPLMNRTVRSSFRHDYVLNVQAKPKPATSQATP
# Sequence of CAIII (P07451 whole entry): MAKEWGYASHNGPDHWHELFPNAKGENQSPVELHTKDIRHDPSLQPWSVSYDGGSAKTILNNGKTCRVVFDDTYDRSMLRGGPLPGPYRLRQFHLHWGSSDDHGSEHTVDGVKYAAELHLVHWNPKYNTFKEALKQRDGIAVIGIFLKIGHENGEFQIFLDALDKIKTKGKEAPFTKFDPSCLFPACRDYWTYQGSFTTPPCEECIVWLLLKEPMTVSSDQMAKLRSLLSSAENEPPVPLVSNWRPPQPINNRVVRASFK
# Sequence of CAVA (P35218 39-305): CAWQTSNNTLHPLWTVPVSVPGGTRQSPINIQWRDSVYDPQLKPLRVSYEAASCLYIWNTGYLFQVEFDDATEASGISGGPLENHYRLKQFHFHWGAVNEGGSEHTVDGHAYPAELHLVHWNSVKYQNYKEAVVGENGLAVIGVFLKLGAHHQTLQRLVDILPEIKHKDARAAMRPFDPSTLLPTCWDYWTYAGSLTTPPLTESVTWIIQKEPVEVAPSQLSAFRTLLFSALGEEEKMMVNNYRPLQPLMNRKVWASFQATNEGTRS
# Sequence of CAIV (P22748 19-312): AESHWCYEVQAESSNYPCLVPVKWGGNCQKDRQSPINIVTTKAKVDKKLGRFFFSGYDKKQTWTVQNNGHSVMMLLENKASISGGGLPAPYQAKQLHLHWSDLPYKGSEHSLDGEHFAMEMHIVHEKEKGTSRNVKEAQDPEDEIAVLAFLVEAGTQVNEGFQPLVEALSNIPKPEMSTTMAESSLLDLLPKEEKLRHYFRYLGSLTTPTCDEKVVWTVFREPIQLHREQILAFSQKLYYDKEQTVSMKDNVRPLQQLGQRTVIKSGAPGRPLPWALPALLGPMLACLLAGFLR
Compound,ΔGintr CAII (CAII [1]),ΔGobs CAII (CAII [1]),"f RSO2NH-, fraction of deprotonated sulfonamide [4]",pKa [4],ΔGobs CAXIII (CAXIII),ΔGintr CAVI (CAVI),ΔGobs CAVI (CAVI),ΔGobs CAVII (CAVII),-TΔSintr CAXII (CAXII),ΔHintr CAXII (CAXII),ΔHobs CAXII (CAXII),ΔGintr CAI (CAI [6]),ΔGobs CAI (CAI [6]),ΔGobs CAIX (CAIX [7]),"Δp_RSO2NH2H, protonation enthalpy of sulfonamide group [8]",ΔGobs CAXIV (CAXIV),ΔGintr CAVB (CAVB),ΔGobs CAVB (CAVB),further results
"COC(=O)c1cc(S(N)(=O)=O)c(Cl)cc1S(=O)(=O)c1ccccc1 [Compound 9a, Methyl 2-(benzenesulfonyl)-4-chloro-5-sulfamoylbenzoate]",-15.1 kcal/mol,-12.8 kcal/mol,5.9% and 5.94%,8.2,-11.7 kcal/mol,-13.5 kcal/mol,-10.3 kcal/mol,-13.3 kcal/mol,-4.11 kcal/mol,-9.08 kcal/mol,-6.55 kcal/mol,-11.5 kcal/mol,-9.7 kcal/mol,-12 kcal/mol,-6.91 kcal/mol,-12.9 kcal/mol,-13.3 kcal/mol,-11.2 kcal/mol,binding to CAII stronger than to CAXII (factor) (CAII [2]): 26 fold; ΔHintr CAII (CAII [3]; [12]): -5.57 kcal/mol; ΔHobs CAII (CAII [3]; [13]): -2.46 kcal/mol; ΔGintr CAVII (CAVII; [14]): -15.6 kcal/mol; ΔHintr CAI (CAI [5]; [12]): -9.49 kcal/mol; ΔHobs CAI (CAI [5]; [13]): -4.25 kcal/mol
"COC(=O)c1cc(S(N)(=O)=O)c(SC2CCCCC2)cc1Cl [Compound 3b, Methyl 2-chloro-4-(cyclohexylsulfanyl)-5-sulfamoylbenzoate]",-13.6 kcal/mol,-9.37 kcal/mol,0.3% and 0.25%,9.6,-10.3 kcal/mol,-14.4 kcal/mol,-9.2 kcal/mol,-9.68 kcal/mol,-3.42 kcal/mol,-11.5 kcal/mol,-6.96 kcal/mol,-10.5 kcal/mol,-6.79 kcal/mol,-13.5 kcal/mol,-8.53 kcal/mol,-11.2 kcal/mol,-11.1 kcal/mol,-7.03 kcal/mol,"ΔGintr CAIV (CAIV; [14]): -13.6 kcal/mol; ΔGobs CAIV (CAIV; [15]): -9.08 kcal/mol; -TΔSintr CAIX (CAIX [9]; intrinsic, 37 °C): -10.8 kcal/mol; ΔHintr CAIX (CAIX [9]; [12]): -7.15 kcal/mol; ΔHobs CAIX (CAIX [9]; [13]): -2.51 kcal/mol; ΔGintr CAXIII (CAXIII; [14]): -14.1 kcal/mol; ΔGintr mimic-CAIX [10]: -16.1 kcal/mol; ΔGintr CAIII (CAIII; [14]): -10.8 kcal/mol; ΔGobs CAIII (CAIII; [15]): -6.24 kcal/mol; binding affinity, times stronger to CAIX than CAXII (CAIX [7]): 150 times; native CAIX bound more strongly than mimic-CAIX (CAIX [7]): 10 fold; ΔGintr CAIX (CAIX [7]): -17.9 kcal/mol; ΔGintr CAXIV (CAXIV; [14]): -15.5 kcal/mol; ΔHintr mimic CAIX ([11]; intrinsic, 37 °C, calculated using protonation enthalpy of CAII): -7.46 kcal/mol; ΔHobs mimic CAIX [11, 13]: -2.39 kcal/mol; ΔGintr CAVA (CAVA; [14]): -9.61 kcal/mol; ΔGobs CAVA (CAVA; [15]): -5.66 kcal/mol"
